This is an account of results in ChEMBL document CHEMBL1201862, “PubChem BioAssay data set” (2004).

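Assay format: 96-well plates, 48-hour exposure. Abbreviation: GI50, concentration required for 50% inhibition of growth.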 Calls of active or inactive are those of the source. Cut-off read from the data, not from the text of the source: active = GI50 up to about 1.1 µM and inactive = higher.

Among the test systems are OVCAR-3; MOLT-4; COLO 205; UACC-62; SR; UO-31; EKVX; DMS-114; Malme-3M; HCT-15; SF-268; OVCAR-4; CCRF-CEM; SF-539; HL-60; SNB-19.
Common to all, as to test: DTP human tumour cell line panel, 48 h

In general, GI50 refers to the concentration giving 50% growth inhibition. As to `CCn1c(SC(C)C(=O)c2c(C)n(C)n(-c3ccccc3)c2=O)nc2ccccc2c1=O` (stereo not drawn), the GI50 in the assay on OVCAR-3, in the assay with MOLT-4, in the assay with COLO 205, in the assay on UACC-62, in the assay with SR and with UO-31 was > 100 µM (inactive) in each case. The GI50 with EKVX is 36.4 µM (inactive); with DMS-114, > 100 µM (inactive); in the assay with Malme-3M, > 100 µM (inactive); in the assay on HCT-15, greater than 100 µM; with SF-268, > 100 µM (inactive); in the assay on OVCAR-4 it was > 100 µM (inactive). Besides, the GI50 in the assay on CCRF-CEM, in the assay with SF-539 and in the assay on HL-60 was > 100 µM (inactive) each time.
With `Cn1cnnc1Sc1c([N+](=O)[O-])nc(-c2ccc([N+](=O)[O-])cc2)n1C`, the GI50 in the assay on OVCAR-3 was 17 µM (inactive); in the assay on MOLT-4 it was 14.6 µM (inactive); in the assay with COLO 205, 14.9 µM (inactive); with UACC-62, 16.5 µM (inactive); with SR it was 16.2 µM (inactive); in the assay with UO-31 it was 14.7 µM (inactive). Further, the GI50 was 27.5 µM (inactive) in the assay on EKVX; 17.9 µM (inactive) with DMS-114; 14.9 µM (inactive) in the assay with Malme-3M; 16.9 µM (inactive) with SF-268; 16.1 µM (inactive) in the assay on OVCAR-4; 10.3 µM (inactive) with CCRF-CEM. Besides, the GI50 was 16.7 µM (inactive) in the assay on SF-539 and > 100 µM (inactive) in the assay with SNB-19.
For the compound `CC(=O)C(CN(C)Cc1ccccc1)C(c1ccccc1)c1c(O)c2ccccc2oc1=O` (stereo not drawn), the GI50 in the assay on MOLT-4 is > 100 µM (inactive); with COLO 205 it was > 100 µM (inactive); in the assay on UACC-62, > 100 µM (inactive); in the assay with SR it was > 100 µM (inactive); with UO-31, 16.6 µM (inactive); in the assay with EKVX, > 100 µM (inactive). Further, the GI50 was > 100 µM (inactive) with DMS-114; > 100 µM (inactive) in the assay on Malme-3M; greater than 100 µM in the assay with HCT-15; > 100 µM (inactive) in the assay on SF-268; > 100 µM (inactive) with OVCAR-4; > 100 µM (inactive) in the assay on CCRF-CEM. Besides, the values for the GI50 in the assay with SF-539, in the assay on HL-60 and in the assay on SNB-19 were > 100 µM (inactive), 52.5 µM (inactive) and 11 µM (inactive), respectively.
Regarding `COc1cc(OC)c(SSCCCCS(=O)O)c(OC)c1`, the GI50 with OVCAR-3 is 15.1 µM (inactive); in the assay with MOLT-4, 6.78 µM (inactive); with COLO 205 it was 17.5 µM (inactive); in the assay with UACC-62, 13.7 µM (inactive); in the assay with UO-31 it was 18.3 µM (inactive); in the assay on EKVX, 13.7 µM (inactive). Further, the GI50 was 16.6 µM (inactive) in the assay on DMS-114; 12.2 µM (inactive) in the assay with Malme-3M; 16.6 µM in the assay with HCT-15; 15.5 µM (inactive) with SF-268; 14.3 µM (inactive) in the assay on OVCAR-4; 5.45 µM (inactive) with CCRF-CEM. Moreover, the GI50 in the assay on SF-539 is 16.1 µM (inactive); in the assay on HL-60 it was 3.91 µM (inactive); in the assay with SNB-19 it was 17.5 µM (inactive).
For the compound `CCN(CC)[C@@H]1c2cc3c(cc2C(c2cc(OC)c(O)c(OC)c2)C2C(=O)CO[C@@H]21)OCO3` (stereo partly drawn), the GI50 with MOLT-4, with COLO 205, with UACC-62, in the assay with SR, in the assay with UO-31 and with EKVX was > 100 µM (inactive) each time. Further, the GI50 in the assay on DMS-114 was > 100 µM (inactive); with Malme-3M, > 100 µM (inactive); in the assay with HCT-15, greater than 100 µM; in the assay on SF-268 it was > 100 µM (inactive); with OVCAR-4, > 100 µM (inactive); in the assay with CCRF-CEM it was > 100 µM (inactive). Further, the GI50 with SF-539 and with HL-60 was > 100 µM (inactive) throughout.
